How the values were obtained:
Format in all cases: in vivo
[1] = 28-day repeated-dose oral toxicity
Experimental: In the rat repeated-dose toxicokinetic study, fexinidazole was administered orally by gavage once a day for 28 consecutive days to ten or fifteen Crl:CD (SD)IGS BR rats/sex/group at doses of 50, 200, or 800 mg/kg/day. A control group received the vehicle alone (5% Tween 80/0.5% methocel). Ten animals/sex/group were sacrificed at the end of the treatment period on day 29 or 30 of study. The remaining 5 animals/sex/group in the control and high-dose groups were sacrificed on day 43 at the end of a 2-weeks observation period. Systemic exposure to fexinidazole and its sulfoxide and sulfone metabolites was evaluated in three additional animals/sex/group. Samples were taken at predose, and 30 min, 1, 2, 4, 8 and 24 h after dosing on days 1, 14, and 28, and in addition at 48 and 72 h after treatment on day 28.
Study Report for NervianoMS Study 0504-2007
Fexinidaxole, a 5-nitroimidazole derivative biologically active against Trypanosoma parasites (T.b. rhodesiense and T.b. brucei ), was administered orally by gavage once daily for 28 consecutive days to ten or fifteen Crl:CD (SD)IGS BR rats/sex/group at doses of 50, 200 and 800 mg/kg/day in a volume of 10 mL/kg.
A control group received the vehicle alone (5% Tween 80 in 0.5% Methyl cellulose 400 cP […]
Ten animals/sex/group were sacrificed at the end of the treatment period on Day 29 or 30 of study. The remaining 5 animals/sex in the control and high-dose groups were sacrificed on Day 43 at the end of a two-week observation period.
Mortality, behavior and general condition were observed daily. Body weight was recorded pretest, and on Days 1, 8, 14, 21, 28, 35 and 42. Food consumption was recorded from Days […]
pre-test, and on Days 28 and 42. Hematological and clinical chemistry examinations and urine analysis were performed on Days 29 and 43.
Post-mortem examinations performed at the end of the treatment period (Day 29 or 30) or the recovery period (Day 43) included necropsy, organ weights and histological […]
Systemic exposure information was obtained from three additional animals/sex/group on Days 1 and 14 at different time-points up to 24 hours after treatment and on Day 28 at different time-points up to 72 hours after treatment.
No meaningful clinical signs or changes in ophthalmoscopic examinations were seen. […]
animals at 200 and 800 mg/kg for the entire treatment period. When treatment was […]
weight gain in comparison with controls.
Nerviano Medical Sciences […]
Humidity 55% +/- 15; monitored
Air Approximately twenty air changes per hour; monitored
Lighting Approximate 12-hour light, 12-hour dark cycle. The lighting cycle could be interrupted for performance of protocol-defined activities.
Water Municipal main, water available ad libitum
Diet 4RF21 GLP pellets ad libitum, supplied by Mucedola
Actual conditions were continuously monitored and recorded, and records were retained.
Release of each lot of feed by the manufacturers was based on analysis of composite samples of each lot, which met specifications set by the manufacturers. Water was periodically analyzed for chemical and microbial impurities. No contaminants were identified in the food or water which were expected to interfere with the results or conclusions of this study.
All the above environmental conditions, as well as all the procedures adopted throughout the study for housing and handling the animals, were in strict compliance with EEC and Italian Guidelines for Laboratory Animal Welfare.
6.2.2. Allocation/Randomization
The animals were selected and distributed into experimental groups using random number tables (Fisher and Yates). The randomization was performed during the pretest period on February 1, 2008 for all animals.
One male animal (No. 2846) assigned to satellite study group for toxicokinetic purposes, found dead on Day 2 of study, was replaced with another one taken from the same arrival batch of animals, in order to maintain the number of three animals/sex/group for subsequent […]
blood samplings. […]

T. b. gambiense 130R = experiment: Acute infection mouse model; conditions: 100 mg/kg×4 days po
Experimental: (§1) Female NMRI mice were infected via intraperitoneal injection with bloodstream forms of T. b. rhodesiense STIB900 or T. b. gambiense 130R and treated with test drugs daily for 4 consecutive days, starting on day 3 or 7 after infection, respectively, or with bloodstream forms of T. b brucei GVR35 and treated daily from day 21 after infection for 5 days. Parasitemia was evaluated by tail blood examination and surviving, aparasitaemic mice at 60, 90, or 180 days, respectively, were considered cured.

[2] = system: T. b. rhodesiense STIB900; experiment: Acute infection mouse model
Experimental: as §1

With CSc1ccc(OCc2ncc([N+](=O)[O-])n2C)cc1 [Fexinidazole, 1-methyl-2-((p-(methylthio)phenoxy)methyl)-5-nitroimidazole] the mortality ([1]; all groups) was “No compound-related mortality occurred”, the NOAEL at 28 days ([1]; both sexes, Crl:CD (SD)IGS BR, rat, in vivo, po) was 200 mg/kg/day and the decrease in hemoglobin ([1]; rat, in vivo) was 8%. The decrease in neutrophils ([1]; rat, in vivo) was “about 46%”, the decrease in triglycerides ([1]; rat, in vivo) was 50% and the increase in globulins ([1]; rat, in vivo) was “+13%”. The “increase in total cholesterol” value ([1]; rat, in vivo) was “+51%”, the liver enzymes ([1]; rat, in vivo) was “no increase in liver enzymes including AST and ALT” and the liver histopathology ([1]; rat, in vivo) was “Minimal to slight hypertrophy of the centrilobular hepatocytes”. For the same compound, the Cured/infected (T. b. gambiense 130R) was 3/3, the Mean relapse time (T. b. gambiense 130R) was greater than 90 days and the Cured/infected ([2]; 25 mg/kg×4 days po) was 0/4. The Mean relapse time ([2]; 25 mg/kg×4 days po) was 12 days, the efficacy ([2]; 50 mg/kg twice a day for 4 days po, T. b. rhodesiense and T. b. gambiense acute models) was “effective in curing” and the Cured/infected ([2]; 50 mg/kg×4 days po) was 1/4. For the same compound, the Mean relapse time ([2]; 50 mg/kg×4 days po) was greater than 27 days, the Cured/infected ([2]; 100 mg/kg×4 days po) was 4/4 and the Mean relapse time ([2]; 100 mg/kg×4 days po) was greater than 60 days. For the same compound, the efficacy ([2]; single high dose, acute model, data not shown) was “partially curative”.
